The text below walks through data of US20120129152A1, “Diagnostic method for the prediction of the development of and control over the effectiveness of treatment of cardiovascular illnesses” (priority 2010, published 2012).

What all share (type): in vivo, human
Assay [1] concerns cytomegalovirus. As to the kind of experiment: IIF of patients' blood immunocytes: cells infected with cytomegalovirus. On the procedure: (§1) The task set is addressed through a diagnostic method for the prediction of the development and control of the effectiveness of the treatment of cardiovascular, in which patient tissue samples are taken (immunocytes and erythrocytes from venous and capillary blood, smears and prints from atherosclerotic plaques after surgical intervention, and cells from urinary and salivary sediment), microdrugs are prepared, specific anti-viral immunoglobulins are processed (for types 1 and 2 herpes viruses, the cytomegalovirus, the herpes Zoster virus, the Epstein-Barr virus, the herpes 6 virus, or the combinations thereof), the number of cells infected by two or more viruses before the beginning of treatment, during treatment, and after treatment are determined with the application of anti-viral therapy, and the dynamic of the change in the number of infected cells and their interrelationships are established: if the number of cells infected by two or more viruses, among which cytomegalovirus must be found, exceeds 50±10% in patients with cardiovascular disease, a diagnostic conclusion of the threat of atherosclerosis complications such as myocardial infarction and stroke, as well as of complications such as arrhythmia, thrombic embolisms, severe left ventricular failure, repeated myocardial infarction, cardiogenic shock, and a high possibility of a fatal result; the method can also be used in patients with cardiovascular diseases after treatment through a method of a combination of traditional methods and the use of anti-viral drugs and a change is seen in the percentage of infected cells after treatment if the number of cells infected by two or more viruses decreases by more than 20±10% in repeat diagnostics, the treatment is considered successful, whereas if a decrease by 20±10% in the number of cells infected by cytomegalovirus and any other aforementioned virus in repeat diagnostics is not seen, a conclusion is drawn on the ineffectiveness of the therapy applied in that period and the need to change the antiviral therapy scheme.

For assay [2], the system named is Epstein-Barr virus. The assay can be described thus: IIF of patients' blood immunocytes: cells infected with Epstein-Barr virus. The method, then: as §1
Assay [3] has as its system HSV-1. As to the kind of experiment: IIF of patients' blood immunocytes: cells infected with herpes type 1 virus.
Description: […]

Assay [4] is described as follows: Blood serum lipid complex (lipidogram) of treated patients.
Assay [5] can be described thus: Free-radical acidization of lipids, serum indicators of treated patient. As to conditions: Example 1, after Valacyclovir with Nitrosorbidum and Corinfar.
A short description of assay [6]: Electrocardiogram indices of treated patient. The following applies: Example 1, after Valacyclovir with Nitrosorbidum and Corinfar.
Assay [7] in a line: Hemodynamic indicators (tetrapolar rheography) of treated patient. As to conditions: Example 1, after Valacyclovir with Nitrosorbidum and Corinfar.
Assay [8] can be described thus: Clinical condition of treated patient with ischemic heart disease.
Where [9] appears, read: Example 2, after Valacyclovir 3 courses of 7 days, before 50% of cells infected.

As to `CC(C)[C@H](N)C(=O)OCCOCn1cnc2c(=O)[nH]c(N)nc21` [Valacyclovir], the “blood immunocytes infected with CMV (IIF)” value in assay [1] (Example 1, after Valacyclovir with Nitrosorbidum and Corinfar, before 60% of cells infected) worked out at 20%. For the same compound, the “CMV in the blood immunocytes (IIF)” value in assay [1] (setting [9]) is recorded as “not present”. In addition, in assay [1] (Example 3, after Valacyclovir 5 courses of 7 days, before 50% of cells infected), the “immunocytes infected with cytomegalovirus (IIF)” value is 10%. The “cytomegalovirus antigens in immunocytes, repeat IIF study” value in assay [1] (Example 4, two months after combination therapy Valacyclovir with immunoglobulin and Laferobion, before 30% of cells infected) was “did not discover antigens”. The “blood immunocytes infected with EBV (IIF)” value in assay [2] (Example 1, after Valacyclovir with Nitrosorbidum and Corinfar, before 70% of cells infected) turned out to be 50%; in assay [2] (setting [9]), 10%. Also, the “Epstein-Barr virus antigens in immunocytes, repeat IIF study” value in assay [2] (Example 4, two months after combination therapy Valacyclovir with immunoglobulin and Laferobion, before 50% of cells infected) is reported as “did not discover antigens”. For the same compound, the “immunocytes infected with HSV-1 (IIF)” value in assay [3] (Example 3, after Valacyclovir 5 courses of 7 days, before 70% of cells infected) came to 30%. Moreover, in assay [3] (Example 4, two months after combination therapy Valacyclovir with immunoglobulin and Laferobion, before 60% of cells infected), the “herpes type 1 virus antigens in immunocytes, repeat IIF study” value is reported as “did not discover antigens”. Also, the “total cholesterol in blood serum” value in assay [4] (Example 1, patient one, after Valacyclovir 1.0 g three times a day with Nitrosorbidum and Corinfar, before 6.71) was found to be 3.26 mmol/L. The compound also came in with a cholesterol/HDL in assay [4] (Example 1, after Valacyclovir with Nitrosorbidum and Corinfar, before 1.17) of 1.20 mmol/L. The LDL in assay [4] (Example 1, after Valacyclovir with Nitrosorbidum and Corinfar, before 1.55) came to 0.47 mmol/L. In addition, the “triglycerides in blood serum” value in assay [4] (Example 1, after Valacyclovir with Nitrosorbidum and Corinfar, before 3.4) stood at 1.04 mmol/L. For the same compound, in assay [4] (Example 1, after Valacyclovir with Nitrosorbidum and Corinfar, before 3.99), the cholesterol/LDL is 3.68 mmol/L. In addition, the atherogenesis index in assay [4] (Example 1, after Valacyclovir with Nitrosorbidum and Corinfar, before 4.74) stood at 3.38. Further, in assay [4] (Example 1, after Valacyclovir with Nitrosorbidum and Corinfar, before 770), the “b-lipoproteins in blood serum” value came to 310 conditional units. Further, the triglycerides in assay [4] (Example 2, after Valacyclovir 1.0 g 3×/day for 3 courses of 7 days, before 1.55) was found to be 1.3 mmol/L; in assay [4] (Example 3, after Valacyclovir 1 g 3×/day for 5 courses of 7 days, before 2.55) it was 1.95 mmol/L; in assay [4] (Example 4, after combination therapy Valacyclovir with immunoglobulin and Laferobion, before 1.4) it was 1.3 mmoles/1. Besides, the total cholesterol was found to be 4.7 mmoles/1 in assay [4] (Example 2, after Valacyclovir 1.0 g 3×/day for 3 courses of 7 days, before 4.9); 4.9 mmol/L in assay [4] (Example 3, after Valacyclovir 1 g 3×/day for 5 courses of 7 days with 7-day intervals, before 5.6); 1.5 mmoles/1 in assay [4] (Example 4, after combination therapy: Valacyclovir 1.0 g 3 times a day, three courses of seven days, with immunoglobulin and Laferobion, before 3.9). The compound further displayed a triethynoid conjugates in assay [5] (before 0.23) of 0.14 mcmol/ml. This compound also had a serum malondialdehyde in assay [5] (before 0.50) of 0.31 mcmol/ml. Besides, the diethynoid conjugates in assay [5] (before 1.332) is 0.70 mcmol/ml. Further, the a-tocopherol content in assay [5] (before 2.69) is 4.32 mcmol/ml. Also, in assay [5] (before 12.4), the glutathione reductase activity is reported as 22.0 mcmol/l h. In addition, the “NST on the electrocardiogram” value in assay [6] (before 10.0) is 0. Further, in assay [6] (before 11.0), the “SST on the electrocardiogram” value is given as 0. The “T index on the electrocardiogram” value in assay [6] (before 35.0) is recorded as 0. Further, the “capacity of the left ventricle” value in assay [7] (before 2.02) was found to be 2.29 W. For the same compound, the energy loss in assay [7] (before 15.96) was 10.37 conditional units. In assay [7] (before 74.53), this compound came in with a specific peripheral resistance of 65.97 conditional units. The compound also yielded a flow rate in assay [7] (before 126.5) of 169.71 mL/s. Besides, in assay [7] (before 2917.9), the “total peripheral vascular resistance” value was 2673.6 dyn s cm^−5. For the same compound, in assay [8] (Example 1, within seven weeks, Valacyclovir with Nitrosorbidum and Corinfar), the “patient's condition” value was “improved significantly”. For the same compound, in assay [8] (Example 1, within seven weeks, Valacyclovir with Nitrosorbidum and Corinfar, nitroglycerine tablets not used), the “angina pain and shortness of breath” value is “not present”. The “lipidogram, peroxide acidization of lipids, electrocardiography and tetrapolar rheography indicators” value in assay [8] (summary of the examples, standard treatment scheme combined with Valacyclovir) is “normalized”.
In the case of `CCC(C)(C)C(=O)O[C@H]1C[C@@H](C)C=C2C=C[C@H](C)[C@H](CC[C@@H]3C[C@@H](O)CC(=O)O3)[C@H]21` [simvastatin], the total cholesterol stood at 4.9 mmoles/1 in assay [4] (Example 2, patient two, after six months of simvastatin 10 mg/day (with metoprolol, enalapril, aspirin), goal indicator 5.0 mmoles/l); 5.6 mmoles/1 in assay [4] (Example 3, patient, after five months of simvastatin 10 mg/day (with metoprolol, aspirin), goal indicator 5.0 mmoles/l); 3.9 mmoles/1 in assay [4] (Example 4, patient one, after six months of Zocor 20 mg/day (with Corvitol, Renitec, aspirin), goal indicator 4.0 mmoles/l). Moreover, the triglycerides came out at 1.55 mmol/L in assay [4] (Example 2, after six months of simvastatin 10 mg/day); 2.55 mmol/L in assay [4] (Example 3, after five months of simvastatin 10 mg/day); 1.4 mmol/L in assay [4] (Example 4, after six months of Zocor 20 mg/day).
